Reference: patent US20260256734A1, “COMPOSITIONS COMPRISING SILYMARIN (OR) CURCUMIN AND METFORMIN, METHODS AND APPLICATIONS THEREOF” (ACUBIOSYS PRIVATE LIMITED, priority 2022, published 2026)

What was measured:
[1] = system: inflammatory markers (IL-17, IL-1β and IL-23) in IMQ-induced differentiated HaCaT cells; test: In vitro IMQ-induced psoriatic model, inflammatory markers in conditioned media; type: cell-based; conditions: IMQ 100 μM, formulation in culture media 48 hr, mean ± S.D.
Description: This study was designed to investigate the effect of a Metf+SMR and Metf+SMR hydro-gel formulation on an IMQ-induced psoriasis-like mouse model. The composition of the hydrogel formulation prepared by using 1.5% crosslinked polyacrylic acid polymer and 1.5% triethanolamine is provided. In doing so, the Applicant expected to obtain supportive evidence of a role for the formulation in treating psoriasis. For that the Applicant has developed hydrogel-based formulations: 1. Metformin and 2. Metformin-silybin (Metf+SMR) 3. Metformin-curcumin (Metf+CMR) and studied invitro cell toxicity in A431 cells by MTT assay and invitro IMQ-induced psoriatic modal using HaCaT cells and determined the inflammatory markers (IL-1β, IL-23 and IL-17).
To set up an efficient and consistent model for psoriasis in vitro, differentiated HaCaT cells were used to screen our test formulations. HaCaT cells were incubated with 2 mM calcium chloride (CaCl2) to achieve differentiation. Induction of psoriatic-like inflammation was achieved by treating the cells with Imiquimod (IMQ) ([…]). The differentiation and inflammation were confirmed by microscopic images. After inflammation, the cells were treated with different formulation dissolved in culture media and incubated for 48 hr. Clobetasol cream formulation was used as a positive control. After incubation, the conditioned media was collected and used for estimation of inflammatory markers (IL-17, IL-1β and IL-23).

[2] = system: IMQ-induced psoriasis model in C57BL/6 Mice; test: IMQ induced psoriatic plaque model, topical hydrogel treatment; type: in vivo
Description: Hair was shaved along the back of the anesthetized mouse from shoulder to hip by using electric clippers or depilatory cream. Psoriasis-like lesions were induced by a daily topical application of a commercially available IMQ cream (62.5 mg/day for 5 days D1-D5) on the shaved back skin of C57BL/6 mice.
Animals were randomly assigned to the different groups after reaching a maximum score of 4 with respect to erythema, scale, and thickness. Animals that didn't score 4 were excluded from the experiment. Sham psoriasis animals were administered with Vaseline cream; IMQ animals, were only challenged with imiquimod cream, and IMQ animals were treated with a hydrogel that was topically applied using a nylon mesh for even distribution of the hydrogel, for the whole duration of the experiment.
To score the severity of inflammation of the back skin, an objective scoring system was developed based on the clinical Psoriasis Area and severity index (PASI), except that for the mouse model the affected skin area is not taken into account in the overall score. Erythema, scaling, and thickening was scored independently on a scale from 0 to 4:0, none; 1, slight; 2, moderate; 3, marked; 4, very marked. The level of erythema was scored using a scoring table with red taints. The cumulative score (erythema plus scaling plus thickening) served as a measure of the severity of inflammation (scale 0-12).
• 0: None; 1: Slight; 2: Moderate; 3: Marked; 4: Very Marked.
One of the important characteristic feature of psoriasis and the psoriasis-like skin inflammation was abnormal increase of epidermal skin thickness which was measured by vernier calipers.
The IMQ induced, skin tissue sections (H&E stain) were collected after ten days (D1-D10) from all groups.

`CC(C)Cn1cnc2c(N)nc3ccccc3c21` [IMQ, Imiquimod] was tested, and the “IL-1β (pg/mL), mean concentration” value [1] was 93.63 ± 2.87 pg/mL, the “IL-17 (pg/mL), mean concentration” value [1] was 99.82 ± 3.03 pg/mL and the “IL-23 (pg/mL), mean concentration” value [1] was 98.73 ± 3.27 pg/mL. The “epidermal skin thickness with IMQ only” value ([2]; increased from 1.15 mm, IMQ only applied topically) was 2.22 mm, the “cumulative score on day 5” value ([2]; scale 0-12, day 5, IMQ only) was 12 and the “cumulative score (erythema+scaling+skin thickness) on day 10” value ([2]; scale 0-12, day 10) was 12. For the same compound, the spleen size (spleen index) ([2]; treatment D6-D10) was 15 mg/g.
